# Assay results: patent US10206906B2, “Synergistic combination of a phenolic-rich maple syrup extract and an antibiotic” (priority 2015, dated 2019)
# Read-outs that look alike come from different tables or passages of the source.
# Columns and labels:
# E. coli CFT073 [1] = assay: Checkerboard microdilution assay (growth inhibition synergy); format: cell-based, Escherichia coli
# Protocol: (§1) The checkerboard microdilution assay is used for evaluation of in vitro antimicrobial synergy between two compounds (i.e., antibiotic/PRMSE, antibiotic/pure phenolic compound, and pure phenolic compounds with each other). Two-fold serial dilutions are prepared in MHB-II for each of the two compounds under study. The serial dilutions are then loaded into 96 well plates to achieve combinations having different concentrations of each of the two compounds. Each well is subsequently inoculated with 10^6 CFU mL^−1 of the desired bacterial strain and incubated at 37° C. for 18 h under static conditions. The Fractional Inhibitory Concentration Index (FICI) for each combination is calculated by using the following formula: FICcomponent 1=MICcomponent 1, in combination/MICcomponent 1,alone FICI=FICcomponent 1+FICcomponent 2
# (§2) The FICIs are interpreted as follows: FICI of […] (synergy); 0.5<FICI ≤1 (no interaction/indifference); FICI of >4 (antagonism).
# P. aeruginosa PAO1 [2] = assay: Determination of minimum inhibitory concentration (MIC); format: cell-based; conditions: Pseudomonas aeruginosa
# Protocol: (§3) A range of concentration of antibiotics, ciprofloxacin (0.0003-0.25 μg mL^−1) and carbenicillin (0.5-512 μg mL^−1), are chosen due to their known potency against all four bacterial strains. Dilutions are prepared in flat bottom, 96 well microtitre plates (Falcon™, Corning™, Fisher Scientific, ON, Canada). Each well of a microtitre plate is then inoculated with the desired bacterial strain (grown in MHB-II and diluted to […]) and the plate is incubated at 37° C. for 18 h under static conditions. Bacterial growth is assessed by (i) monitoring the optical density of the cell suspension in each well at 600 nm (OD600 nm), and (ii) the resazurin microtitre plate assay. In the resazurin microtitre plate assay, each well of a microtitre plate is supplemented with 20 μM resazurin, incubated in the dark for 20 min at room temperature, followed by fluorescence measurements at ex/em 570/590 nm using a TECAN Infinite M200 Pro microplate reader (Tecan Group Ltd., Switzerland). The lowest concentration of a compound able to prevent increase in OD600 nm and resazurin fluorescence intensity is recorded as the MIC for that compound.
# P. mirabilis HI4320 [3] = assay: as above; format: cell-based; conditions: Proteus mirabilis
# Protocol: as §3
# E. coli CFT073 [4] = assay: as above; format: cell-based; conditions: Escherichia coli
# Protocol: as §3
# P. aeruginosa PA14 [5] = assay: as above; format: cell-based; conditions: Pseudomonas aeruginosa
# Protocol: as §3
# P. aeruginosa PAO1 [6] = assay: Checkerboard microdilution assay (growth inhibition synergy); format: cell-based, Pseudomonas aeruginosa
# Protocol: as §1, §2
# P. aeruginosa PA14 [7] = assay: as above; format: cell-based, Pseudomonas aeruginosa
# Protocol: as §1, §2
# [8] = tested on: E. coli CFT073, P. mirabilis HI4320, P. aeruginosa PAO1 and PA14; assay: Checkerboard microdilution assay, summary over the four strains; format: cell-based; conditions: labelled constituent + gallic acid; range over the four strains
# Protocol: as §1, §2
# P. mirabilis HI4320 [9] = assay: Checkerboard microdilution assay (growth inhibition synergy); format: cell-based, Proteus mirabilis
# Protocol: as §1, §2
# P. aeruginosa PA14 lawn = assay: In vitro analysis of hemolymph recovered from treated G. mellonella larvae; parameters: species or system Galleria mellonella; conditions: hemolymph recovered 3 h post-injection, spotted on PA14 lawn, 24 h at 37° C.
# Protocol: Larvae were injected with PRMSE (mg/mL) or Cip (μg/mL) alone and in combination, and hemolymph recovered 3 h after treatment were spotted on Pseudomonas isolation agar plates previously inoculated with PA14 cells to produce a lawn of confluent growth. The plate was observed after 24 h of incubation at 37° C. The experiment was performed with three larvae per each condition in triplicate. S-control: saline control.
# To rule out any growth-inhibitory effect of PRMSE on PA14 cells due to induction of the immune response, production of antimicrobial peptides or transformation of the extract into a toxic compound(s) in the larval hemolymph, an additional set of larvae are injected with 5 μL of PRMSE without and with ciprofloxacin (sub-MICs) or saline solution as a control. The larval hemolymph is recovered at 3 h after the treatment and 5 μL aliquot of each larval hemolymph sample is spotted on the Pseudomonas isolation agar (BD-Difco) plates previously inoculated with PA14 cells to produce a lawn of confluent growth. The appearance of growth inhibition halos is verified after 24 h of incubation at 37° C.
# [10] = tested on: P. aeruginosa PA14 infection; assay: Drosophila melanogaster (fruit fly) feeding infection assay; format: in vivo; conditions: monotherapy at sub-MIC (PRMSE 6.25 mg mL^−1, ciprofloxacin 0.015 μg mL^−1)
# Protocol: Mortality was scored daily for 14 days. […] Results represent measurements from experiments performed with duplicates, twice (*p<0.01, Log-rank Mantel-cox test).
# In this infection assay, PRMSE was analyzed for its anti-infective activity. As well, antibiotic ciprofloxacin is analyzed in combination with PRMSE for its synergistic anti-infective interactions. Fruit flies (D. melanogaster) are infected orally in fly feeding assay as before (Lutter et al., 2008, Infect Immun., 76: 1877-1888), with some modifications. Briefly, flies are anesthetized under a gentle stream of carbon dioxide. Male flies (3- to 5-days-old) are starved of food and water for 5-6 h and separated into vials (10 per vial) containing 5 ml of 5% sucrose agar (sterile) without and with phenolic extract without and with antibiotic at sub-MICs and 2.3-cm filter paper disks (sterile) containing freshly grown bacterial culture suspension. To achieve this freshly grown culture, an overnight P. aeruginosa PA14 culture is inoculated in 6 mL TSB culture and incubated at 37° C. and 100 rpm until OD600=3.0. This culture is centrifuged at 12,000×g for 1 min and the resulting pellet resuspended in 150 μL of sterile 5% sucrose, without and with sub-MICs of phenolic extract or antibiotic. […] Post-infection mortality of flies is monitored daily for 14 days, with each treatment tested twice in duplicate.
# [11] = tested on: P. aeruginosa PA14 infection; assay: Galleria mellonella larvae (wax moth) infection assay; format: in vivo; conditions: monotherapy at sub-MIC (PRMSE 12.5 mg/mL, ciprofloxacin 0.03 μg/mL)
# Protocol: Each data set represents one experiment with five larvae per condition in triplicate, the experiment repeated twice (*P<0.05, Mantel-cox test, n=6).
# Briefly, PA14 culture grown overnight in TSB broth is diluted 1:100 in the same growth medium and further grown to OD600 nm of 1.27 at 37° C. under 100 rpm shaking. Freshly grown culture is centrifuged, and pellets are washed and resuspended in 10 mM MgSO4 to an OD600 of 0.1. To prepare the lethal dose of P. aeruginosa PA14 culture serial 10-fold dilutions are made in 10 mM MgSO4 supplemented with 1 mg/mL of ampicillin (adjusted to about 1-10^3 bacterial cells in 5 μL of suspension) containing or not containing PRMSE, without and with ciprofloxacin at sub-MICs. Ampicillin is used to prevent infection by bacterial contaminants on the surface of the larvae at a final concentration of approximately 5 ng per larva during survival phase. G. mellonella larvae are injected with 5 μL aliquot of each treatment solution using prewashed Hamilton syringe. Five larvae are injected per each treatment and the assay is performed in triplicate. PRMSE and ciprofloxacin at sub-MICs are assessed individually to monitor adverse effect on larvae survival. […] All injected larvae are incubated in Petri plates at 28° C. under the dark condition, and the number of dead larvae is scored daily after infection. […]
# G. mellonella larvae = G. mellonella larvae survival after injection of extract or antibiotic alone; format: in vivo, Galleria mellonella; conditions: injected alone; PRMSE 12.5 mg/mL, ciprofloxacin 0.03 μg/mL; within 72 h
# Protocol: Each data set is representative of experiments with five larvae per condition in triplicate.
# G. mellonella infection assay is performed as described previously with some modification (Jander et al., 2000, J Bacteriol., 182: 3843-3845). Briefly, PA14 culture grown overnight in TSB broth is diluted 1:100 in the same growth medium and further grown to OD600 nm of 1.27 at 37° C. under 100 rpm shaking. Freshly grown culture is centrifuged, and pellets are washed and resuspended in 10 mM MgSO4 to an OD600 of 0.1. […] Ampicillin is used to prevent infection by bacterial contaminants on the surface of the larvae at a final concentration of approximately 5 ng per larva during survival phase. G. mellonella larvae are injected with 5 μL aliquot of each treatment solution using prewashed Hamilton syringe. Five larvae are injected per each treatment and the assay is performed in triplicate. […] All injected larvae are incubated in Petri plates at 28° C. under the dark condition, and the number of dead larvae is scored daily after infection. […] A mock inoculation using prewashed Hamilton syringe is also performed in each experiment to monitor the killing due to physical injury or infection by pathogenic contaminants. […]
# P. aeruginosa PA14 [12] = assay: Survival of PA14 on sucrose filters during fly feeding assay; format: cell-based, Pseudomonas aeruginosa; conditions: PRMSE 6.25 mg mL-1, ciprofloxacin 0.015 μg mL-1, mono- and combination; six days
# Protocol: Total viable bacterial counts per filter were determined every second day for filters containing bacterial cells on sucrose agar. PA14 cells on filter were untreated or treated with PRMSE (6.25 mg mL-1) or ciprofloxacin (0.015 μg mL-1) alone and in combination. Average data represent data from experiment performed in triplicate and error bars represent S.D.
# To address this possibility, the survival of PA14 on the paper discs without and with sub-MICs of PRMSE or antibiotic under the same conditions as the fly feeding assay is analyzed. Enumeration of viable bacteria on filters during the infection period is performed using separate test vials with different treatments inoculated with P. aeruginosa PA14 and inoculated control sucrose vials that are sampled on alternative days, up to 6 days during infection period. Briefly, filters from the test vials are removed in a sterile environment, placed in 50 mL polypropylene tube containing 5 mL of LB broth and vortexed for 30 s. This LB medium containing the sampled bacterial cells is serially diluted in phosphate buffer saline solution (pH 7.4), and 30 μL is plated onto Pseudomonas isolation agar (BD-Difco). Colonies are enumerated after the incubation at 37° C. for 24 h.
# D. melanogaster flies = assay: D. melanogaster survival when fed extract or antibiotic individually; format: in vivo, Drosophila melanogaster; conditions: PRMSE 6.25 mg/mL, ciprofloxacin 0.015 μg/mL, within 264 h
# Protocol: As well, antibiotic ciprofloxacin is analyzed in combination with PRMSE for its synergistic anti-infective interactions. Fruit flies (D. melanogaster) are infected orally in fly feeding assay as before (Lutter et al., 2008, Infect Immun., 76: 1877-1888), with some modifications. Briefly, flies are anesthetized under a gentle stream of carbon dioxide. Male flies (3- to 5-days-old) are starved of food and water for 5-6 h and separated into vials (10 per vial) containing 5 ml of 5% sucrose agar (sterile) without and with phenolic extract without and with antibiotic at sub-MICs and 2.3-cm filter paper disks (sterile) containing freshly grown bacterial culture suspension. To achieve this freshly grown culture, an overnight P. aeruginosa PA14 culture is inoculated in 6 mL TSB culture and incubated at 37° C. and 100 rpm until OD600=3.0. This culture is centrifuged at 12,000×g for 1 min and the resulting pellet resuspended in 150 μL of sterile 5% sucrose, without and with sub-MICs of phenolic extract or antibiotic. […] Post-infection mortality of flies is monitored daily for 14 days, with each treatment tested twice in duplicate.
# [13] = ciprofloxacin in combination with the labelled phenolic constituent
# [14] = labelled constituent + catechaldehyde, * = synergistic
# [15] = labelled constituent + catechol, * = synergistic
# [16] = labelled constituent + gallic acid, * = synergistic
# [17] = labelled constituent combined with catechaldehyde
# [18] = labelled constituent combined with catechol
# [19] = labelled constituent combined with gallic acid
# [20] = labelled phenolic constituent + ciprofloxacin, * = synergistic interaction
# [21] = labelled phenolic constituent in combination with ciprofloxacin
# [22] = ciprofloxacin/PRMSE combination, FIC of the labelled component
smiles,measurement,setting,value
COc1cc(C=O)cc(OC)c1O [syringaldehyde],FIC of ciprofloxacin,E. coli CFT073 [1]; [13],0.5
same,"FICI, catechaldehyde",E. coli CFT073 [1]; [14],0.31*
same,"FICI, catechol",E. coli CFT073 [1]; [15],0.31*
same,"FICI, gallic acid",E. coli CFT073 [1]; [16],0.75
same,"FIC, catechaldehyde",E. coli CFT073 [1]; [17],0.25
same,"FIC, catechol",E. coli CFT073 [1]; [18],0.25
same,"FIC, gallic acid",E. coli CFT073 [1]; [19],0.5
same,FICI,E. coli CFT073 [1]; [20],0.75
same,FIC of compound,E. coli CFT073 [1]; [21],0.25
same,MIC,"P. aeruginosa PAO1 [2]; PAO1, 18 h",5000 µg/mL
same,MIC,"P. mirabilis HI4320 [3]; HI4320, 18 h",5000 µg/mL
same,MIC,"E. coli CFT073 [4]; CFT073, 18 h",5000 µg/mL
same,MIC,"P. aeruginosa PA14 [5]; PA14, 18 h",5000 µg/mL
same,FIC of ciprofloxacin,P. aeruginosa PAO1 [6]; [13],1
same,"FICI, catechaldehyde",P. aeruginosa PAO1 [6]; [14],0.5*
same,"FICI, catechol",P. aeruginosa PAO1 [6]; [15],0.5*
same,"FICI, gallic acid",P. aeruginosa PAO1 [6]; [16],1
same,"FIC, catechaldehyde",P. aeruginosa PAO1 [6]; [17],0.25
same,"FIC, catechol",P. aeruginosa PAO1 [6]; [18],0.25
same,"FIC, gallic acid",P. aeruginosa PAO1 [6]; [19],0.5
same,FICI,P. aeruginosa PAO1 [6]; [20],2
same,FIC of compound,P. aeruginosa PAO1 [6]; [21],1
same,FIC of ciprofloxacin,P. aeruginosa PA14 [7]; [13],0.5
same,"FICI, catechaldehyde",P. aeruginosa PA14 [7]; [14],1
same,"FICI, catechol",P. aeruginosa PA14 [7]; [15],1
same,"FICI, gallic acid",P. aeruginosa PA14 [7]; [16],0.63
same,"FIC, catechaldehyde",P. aeruginosa PA14 [7]; [17],0.5
same,"FIC, catechol",P. aeruginosa PA14 [7]; [18],0.5
same,"FIC, gallic acid",P. aeruginosa PA14 [7]; [19],0.13
same,FICI,P. aeruginosa PA14 [7]; [20],0.75
same,FIC of compound,P. aeruginosa PA14 [7]; [21],0.25
same,FICIs of pairs with gallic acid,[8],0.63-1.0
same,FIC of ciprofloxacin,P. mirabilis HI4320 [9]; [13],0.5
same,"FICI, catechaldehyde",P. mirabilis HI4320 [9]; [14],0.75
same,"FICI, catechol",P. mirabilis HI4320 [9]; [15],0.75
same,"FICI, gallic acid",P. mirabilis HI4320 [9]; [16],1
same,"FIC, catechaldehyde",P. mirabilis HI4320 [9]; [17],0.25
same,"FIC, catechol",P. mirabilis HI4320 [9]; [18],0.25
same,"FIC, gallic acid",P. mirabilis HI4320 [9]; [19],0.5
same,FICI,P. mirabilis HI4320 [9]; [20],1
same,FIC of compound,P. mirabilis HI4320 [9]; [21],0.5
"O=C(O)c1cn(C2CC2)c2cc(N3CCNCC3)c(F)cc2c1=O [ciprofloxacin, reference compound]",FIC (Fractional Inhibitory Concentration),E. coli CFT073 [1]; [22],0.25
same,effect of recovered larval hemolymph on PA14 growth in vitro,P. aeruginosa PA14 lawn,no effect
same,protection of D. melanogaster against PA14 infection,[10],fails to protect
same,MIC,"P. aeruginosa PAO1 [2]; PAO1, antibiotic alone, MHB-II, 37° C., 18 h, read-out: MIC",1 µg/mL
same,MIC,"P. mirabilis HI4320 [3]; HI4320, antibiotic alone, MHB-II, 37° C., 18 h, read-out: MIC",0.016 µg/mL
same,MIC,"E. coli CFT073 [4]; CFT073, antibiotic alone, MHB-II, 37° C., 18 h, read-out: MIC",0.008 µg/mL
same,MIC,"P. aeruginosa PA14 [5]; PA14, antibiotic alone, MHB-II, 37° C., 18 h, read-out: MIC",0.06 µg/mL
same,FIC (Fractional Inhibitory Concentration),P. aeruginosa PAO1 [6]; [22],0.03
same,FIC (Fractional Inhibitory Concentration),P. aeruginosa PA14 [7]; [22],0.03
same,protection of G. mellonella larvae against PA14 infection,[11],fails to protect
same,killing effect on G. mellonella larvae,G. mellonella larvae,no killing effect
same,culturability of PA14 cells on filter paper discs,P. aeruginosa PA14 [12],no significant difference
same,killing effect on D. melanogaster flies,D. melanogaster flies,no killing effect
same,FIC (Fractional Inhibitory Concentration),P. mirabilis HI4320 [9]; [22],0.02
